In the pKa sets of Baltruschat and Czodrowski (2020):
Where a SMILES comes first, the peptide text is derived from it.

Settings: acidic group

Structure (SMILES) | pKa
O=[N+]([O-])c1ccc2c(c1)Cc1cc(O)ccc1-2 | 9.01
O=C(O)[C@H]1C[C@@H]2CC[C@H]1C2 | 5.02
CO[C@H]1O[C@H](C(=O)O)[C@H](O)[C@H](O)[C@H]1O | 3.55
N#CC(C(=O)O)c1ccccc1 (stereo not given) | 1.77
CC(=O)c1ccc(F)cc1 | 18.5
C[n+]1ccccc1S | -1.42
O=C(C[n+]1cccc2c3ccccc3ccc21)c1ccc([N+](=O)[O-])cc1 | 9.45
[O-]c1cccc(O)c1 | 11.3
COc1c(O)ccc2c1C[N+]1(C)CCc3cc4c(cc3[C@@H]1C2)OCO4 (stereo not given in full) | 8.45
O=C([O-])[C@@H]1CC[C@@H](C(=O)O)[Se]1 | 4.35
CC(=O)c1cccc(NS(=O)(=O)C(F)(F)F)c1 | 3.75
CC(O)(C(=O)O)c1ccccc1 (stereo not given) | 3.53
CC(=O)NCc1cc(C)cc(CNC(C)=O)c1O | 9
O=C(O)/C=C(\I)c1ccccc1 | 3.4
COc1ccc(C(=S)Nc2ccc(Cl)c(Cl)c2)cc1 | 10.1
O=C(O)c1cccs1 | 3.46
CNc1cccc[n+]1O | 2.61
O=S1(=O)N=CNc2nc[nH]c21 | 5.59
CCCCCC[NH2+]CCC(=O)O | 3.61
O=Cc1ncnc2nc[nH]c12 | 8.8
OC[C@@H]1O[C@H]([n+]2ccc(NO)nc2O)[C@@H](O)[C@H]1O | 2.26
O=C1CC(=O)CC2(CCCCC2)C1 | 5.2
Cc1nn(-c2ccccc2)c(O)c1C1CCCCC1 | 11.6
COc1ccc(O)c(N)c1 | 10
O=C(NO)c1cccc([N+](=O)[O-])c1 | 8.07
Cc1ccc(OC(O)(CBr)c2ccccc2)cc1 (stereo not given) | 11.2

Structure (SMILES) | pKa
Oc1cccc2ccnnc12 | 8.25
O=C(O)[C@@H]1CC[C@H](C(=O)O)C1 | 4.24
O=CNOC(=O)/C=C/c1ccccc1 | 5.9
CC1(C)SC(=S)NC1=O | 5.38
Oc1ccc(Cl)cc1 | 9.29
C(CSCCc1nnn[nH]1)SCCc1nnn[nH]1 | 5
C=C=C(C)C(C)(C)C(=O)O | 4.55
CC(=O)NC(CS)C(=O)[O-] (stereo not given) | 9.62
CC(C)(/C=C/C(=O)[O-])c1cc(Br)ccc1O | 10
CC(=O)N(C)CC(=O)O | 3.16
NS(=O)(=O)c1cccc(C(F)(F)F)c1 | 8.98
Oc1cnc2ccccc2c1 | 8.06
C[C@H]1CC[C@@H](C(=O)O)CC1 | 5.04
CCCCCCCCCc1c(O)n[nH]c1-c1ccccc1 | 10.6
CCOC(=O)/C(C)=N/O | 9.64
Cc1cc(O)c(C(C)C)cc1Cl | 9.98
Cc1cc(C)c(/N=N/c2c(C)cc(O)cc2C)c(C)c1 | 9.1
CC(=O)NBr | 8.1
O=[N+]([O-])c1cccc2c[n+](CCCO)ccc12 | 10.4
[NH3+]C(Cc1ccccc1)c1nnn[nH]1 (stereo not given) | 1.93
CCCCCCCCC(=O)OO | 8.23
NCc1cccc(S(N)(=O)=O)c1 | 10.1
O=C(O)C12CCC(CC1)C2 | 4.89
Fc1ccc(NC=S)cc1 | 11.2
Cc1ccc([Se]O)c([N+](=O)[O-])c1 | 10.7
Sc1cnc2ccccc2c1 | 6.13

Structure (SMILES) | pKa
CC/C(=N/O)NO | 10.7
Nc1ccccc1[N+](=O)[O-] | 13.4
CC(=O)c1cc[nH]n1 | 11.8
[O-]c1ccc(/C=N/O)cc1 | 12
CC(C)Oc1ccc(C(=O)O)cc1 | 4.57
[NH3+]C(c1cccc(O)c1O)P(=O)([O-])[O-] (stereo not given) | 9.44
Cc1ccc(C(=O)C(=O)O)cc1 | 1.52
Cc1cc(C)c(O)c(C)c1 | 10.9
O=C(O)c1cc[n+]([O-])cc1 | 2.86
S=C(Nc1ccccc1)c1cccc(Br)c1 | 10.5
CCO/C(C)=N/O | 11.4
CCC1(CC)C(=O)NC(=O)N(C(=O)c2ccccc2OC)C1=O | 6.54
Cc1ccccc1-c1nnn[nH]1 | 4.09
N#CC(CC(=O)O)Cc1ccccc1 (stereo not given) | 3.91
N#Cc1ccc(C(=O)S)cc1 | 1.42
Cn1cnc2c1NC=NS2(=O)=O | 4.45
O=C1C[C@@H](C(=O)O)[C@@H](C(=O)[O-])O1 | 4.5
O=C1Cc2cc(O)ccc21 | 7.24
O=C(O)c1ccnnc1 | 2.8
CC(C)[NH2+]CC(=O)c1ccc(O)cc1 | 7.56
O=[N+]([O-])c1cc(O)ccc1O | 7.42
Cc1cc(Cc2cc(C)c(O)c(C)c2)c([O-])c([N+](=O)[O-])c1 | 11.1
N#CCc1ccc(C#N)cc1[N+](=O)[O-] | 11.4
O=[Se](O)c1ccccc1 | 4.79
Cc1ccc(S(=O)(=O)N(CCNCC(=O)[O-])CC(=O)[O-])cc1 | 7.83

Same assay, conditions: basic group

Structure (SMILES) | pKa
COC(=O)[C@@H]1[C@H](O)C[C@@H]2CC[C@H]1N2C | 8.85
COCC(C)CN(C)C (stereo not given) | 9.69
COC(=O)c1c2ccccc2nc2ccccc12 | 3.45
CCCCCCCCCCCCN(CCO)CC(C)O (stereo not given) | 6.5
COc1ccc(I)cc1C(=O)N[C@@H]1C[C@H]2CC[C@@H](C1)N2Cc1ccccc1 | 8.79
CCOC(=O)c1cc(-c2ccccc2)nnc1NCCN1CCOCC1 | 6.67
NC(c1ncc[nH]1)c1ncc[nH]1 | 6.49
Cc1c[nH+]c(C)cn1 | -4.42
Nc1nc(NCO)nc(NCO)n1 | 4.65
CC[C@@H]1C(=O)OC[C@H]1Cc1cncn1C | 7.17
CCC(C)(C)N | 10.9
CCCCOc1ccc(OCCCN2CCOCC2)cc1 | 6.24
Nc1ncnc2c1nnn2Cc1ccco1 | 2.6
NC(CC(=O)[O-])C(=O)NC(CC(=O)[O-])C(=O)[O-] (stereo not drawn) (H-Asp-Asp-OH; configuration not given here) | 8.26
O=C1c2ncnc([O-])c2C(=O)c2nc[nH]c21 | 5.99
c1cncc(-c2ccoc2)c1 | 4.93
CCCN(CC(O)CC)CC(O)CC (stereo not given) | 9
[O-]c1ccncn1 | 8.59
CC[C@H](C)[C@H](N)C(=O)[O-] | 9.77
COc1ccc(/N=N/c2c(N)n[nH]c2N)cc1 | 3.39
Cc1c(C(=O)[O-])sc2cc(Cn3ccnc3)ccc12 | 6.35
[S-]c1nccc2ccccc12 | 10.8
Nc1ccc(-c2ccc(N)cc2)cc1 | 4.96
CCCCCN(CC(C)O)CC(O)CC (stereo not given) | 9.1
COCCN(C)c1ccccc1 | 4.81

Structure (SMILES) | pKa
c1nc(Cc2c[nH]c(Cc3nc(Cc4cnc[nH]4)c[nH]3)[nH+]2)c[nH]1 | 6.66
O=Cc1ncnc2nc[nH]c12 | 2.4
O=C([O-])c1ccc([N+](=O)[O-])c2cccnc12 | 4.67
N[C@H]1C[C@H]2CCCC[C@@H]2C[C@@H]1N | 10.1
N/C=N/O | 5.05
CCCCN1CCCC1 | 10.4
Nc1nc2ccccc2c2ccccc12 | 7.31
Oc1cccc2ccnnc12 | 2.72
NC[C@@H](O)[C@H]1NC(N)=N[C@@H]1C(=O)[O-] | 11.9
CCN(CC)CCC[NH+](CC)CC | 8.2
c1ccc2c(c1)nnc1ccccc12 | 2.2
CCN(CC)CC(=O)NC1CCCCC1 | 8.21
Nc1cccnc1C(=O)[O-] | 7.18
c1ccc(CN2CCCC2)cc1 | 9.51
CC/N=C1\C=C(NCC)CC(C)(C)C1 | 12.1
Cc1ccc(C)c(N)c1 | 4.47
Nc1nnnn1Cc1ccccc1 | 1.44
CCN(C)NC | 6.85
C(=C\C[NH+]1CCCCC1)/CN1CCCCC1 | 7.9
c1ccc(C2=NCCC2)cc1 | 7.2
O=C([O-])c1nccc2ccccc12 | 4.97
C[C@H](N)[C@@H](C)N | 9.88
Oc1cnc2ccccc2c1 | 4.3
COc1ccc(CON)cc1 | 4.42
C1CCCNCC1 | 11

Structure (SMILES) | pKa
CCNCc1ccccc1 | 9.75
CCC(=O)C(c1ccccc1)(c1ccccc1)[C@@H](C)CN(C)C | 8.07
Nc1ncnc2scnc12 | 2.77
NCc1cccc(S(N)(=O)=O)c1 | 8.55
O=C([O-])[C@@H]1O[C@H](Oc2cccc3cccnc23)[C@@H](O)[C@H](O)[C@H]1O | 4.62
Nc1nc(N)c2cn[nH]c2n1 | 5.58
Sc1cnc2ccccc2c1 | 2.33
CN(C)/C=N/c1ccccc1[N+](=O)[O-] | 5.65
CC/C(=N/O)NO | 5.15
C=CCN(CC=C)CCCN(CC=C)CC=C | 8.8
Nc1ccccc1[N+](=O)[O-] | -0.24
N[C@H]1CCCCC[C@@H]1O | 9.35
CNc1nc(C)nc2nc[nH]c12 | 5.08
CCCCCCNCc1ccc(C)cc1 | 10.2
CN1C=C(C#N)CCC1 | 2.7
Cc1cnc2c(ccc3cc(C)cnc32)c1 | 5.23
C#CCN1CCN(C(=O)OCC)CC1 | 5.44
CCCC[NH2+]CC/C(N)=N/O | 3.75
COc1cc(CN)c(C)cc1N | 9.54
C=CCc1c(O)n[nH]c1C | 2.8
CS(=O)Cc1ccccn1 (stereo not given) | 3.1
CN(C)CCCCCCCCCNC(=O)/C=N/[O-] | 10.5
O=C([O-])c1ccnc2ccccc12 | 4.76
Cc1cnc([C@@H](O)[C@H](O)[C@H](O)CO)cn1 | 1.4
c1ccnnc1 | 2.33

Structure (SMILES) | pKa
CCCC[NH2+]CCN | 7.53
Cc1cc(C)nc(N)c1 | 7.84
N/C(CC/C(N)=N/O)=N\O | 5.97
Cc1cc(-c2ncc[nH]2)nn1C | 6.2
N=C(Nc1ccccc1)Nc1nc(N)nc(N)n1 | 8.2
CC(C)(N)C#N | 5.3
Cc1cc(Br)c(N)c(Br)c1 | 0.69
COC(=O)C1=CCCNC1 | 8.7
CCN(C)CCOCC[NH+](CC)CC | 8.46
CN(C)c1ccc([N+](C)(C)C)cc1 | 2.64
OCCNC1CCN(Cc2ccccc2)CC1 | 9.24
Cc1n[nH]c2cc(N)ccc12 | 4
CCN1[C@H](C)[C@@H]1C (stereo not given in full) | 8.57
C=Cc1ccccn1 | 4.92
CCOCCNc1cccc(C)c1 | 4.24
c1ccc2nnccc2c1 | 2.29
CN(C)c1ccccc1 | 5.1
O=[Se](O)c1ccccc1 | -0.9
C[NH+]1CCCC1c1cccnc1 (stereo not given) | 3.01
N[C@@H](Cc1c[nH]cn1)C(=O)NCC(=O)[O-] (H-His-Gly-OH) | 7.82
CCn1c(=O)n(C)c2ccccc21 | -3.7
C[C@@H](CC(C#N)(c1ccccc1)c1ccccc1)N(C)C | 8.31
C=CCNCCCCCCCCCCC(=O)[O-] | 9.3
